This is an account of results in US12577206B2 (BRISTOL-MYERS SQUIBB COMPANY, priority 2020, dated 2026).

In general, EC50 refers to the concentration that produces a half-maximal response.

Structures are written as SMILES.

Assay [1] deals with T1, human FPR2 (Homo sapiens, UniProt P25090).
T1 sequence (P25090 1-351): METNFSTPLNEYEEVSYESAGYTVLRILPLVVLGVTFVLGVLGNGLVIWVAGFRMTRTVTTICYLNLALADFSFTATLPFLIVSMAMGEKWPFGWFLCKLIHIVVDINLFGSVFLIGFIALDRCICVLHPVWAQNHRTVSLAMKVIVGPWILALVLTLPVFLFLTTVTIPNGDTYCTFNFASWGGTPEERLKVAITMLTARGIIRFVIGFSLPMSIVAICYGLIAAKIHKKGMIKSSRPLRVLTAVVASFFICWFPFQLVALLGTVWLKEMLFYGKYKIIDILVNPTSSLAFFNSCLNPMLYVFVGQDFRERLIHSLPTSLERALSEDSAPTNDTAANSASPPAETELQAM
Briefly: FPR2 cyclic adenosine monophosphate (cAMP) assay. Conditions: CHO cells overexpressing human FPR2; forskolin 5 μM; inhibition of cAMP production; HTRF; read-out: hFPR2 cAMP2 EC50. Format: cell-based. An outline of the steps:
(§1)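 CHO cells overexpressing human FPR1 (4,000/well) or FPR2 (2,000/well) were incubated 30 min at room temperature with compound (0.020 nM to 100 μM, 1% DMSO), IBMX 200 μM, and forskolin at 10 μM (FPR1) or 5 μM (FPR2), all final. HTRF cAMP read-out; inhibition fitted by 4-parameter logistic equation.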
Background: cAMP levels reflect the balance of adenylyl cyclase and phosphodiesterase activity.

In assay [2] the target is T2, human FPR1 (Homo sapiens, UniProt P21462).
T2 sequence (P21462 1-350): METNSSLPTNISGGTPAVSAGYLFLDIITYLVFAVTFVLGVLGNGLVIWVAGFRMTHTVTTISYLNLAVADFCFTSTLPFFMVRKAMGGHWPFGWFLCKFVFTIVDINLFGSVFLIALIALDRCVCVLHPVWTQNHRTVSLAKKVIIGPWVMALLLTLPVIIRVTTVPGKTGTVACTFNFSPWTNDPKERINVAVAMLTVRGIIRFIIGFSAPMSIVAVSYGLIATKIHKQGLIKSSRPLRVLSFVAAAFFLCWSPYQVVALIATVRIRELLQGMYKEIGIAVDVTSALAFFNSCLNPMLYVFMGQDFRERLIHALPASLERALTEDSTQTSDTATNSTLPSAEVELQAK
Nature of the assay: FPR1 cyclic adenosine monophosphate (cAMP) assay. Format: cell-based. Conditions: CHO cells overexpressing human FPR1; forskolin 10 μM; inhibition of cAMP production; HTRF; read-out: hFPR1 cAMP2 EC50. The gist of the method: as §1

Consider `COc1cc(F)c(-c2c(NC(=O)c3ccc(OC(F)F)cc3)c(=O)n(-c3cccc(N4CC(F)(F)C4)n3)n2C)c(F)c1` [Example 104, N-[5-(2,6-difluoro-4-methoxyphenyl)-2-[6-(3,3-difluoroazetidin-1-yl)pyridin-2-yl]-1-methyl-3-oxo-2,3-dihydro-1H-pyrazol-4-yl]-4-(difluoromethoxy)benzamide], for which the figures for the concentration giving a half-maximal response (EC50) in assay [1] and in assay [2] were 3 nM and 6200 nM, respectively.
The matching figures for `COc1cc(F)c(-c2c(NC(=O)c3ccc(OC(F)F)cc3)c(=O)n(-c3cccc(OCC(C)(C)O)n3)n2C)c(F)c1` [Example 392, N-(5-(2,6-Difluoro-4-methoxyphenyl)-2-(6-(2-hydroxy-2-methylpropoxy)pyridin-2-yl)-1-methyl-3-oxo-2,3-dihydro-1H-pyrazol-4-yl)-4-(difluoromethoxy)benzamide]: 22 nM and 830 nM.
Consider `COc1cc(F)c(-c2c(NC(=O)c3ccc(OC(F)F)cc3)c(=O)n(-c3nc(N4CC[C@H](O)C4)ccc3C(F)(F)F)n2C)c(F)c1` [Example 280, N-[5-(2,6-difluoro-4-methoxyphenyl)-2-{6-[(3S)-3-hydroxypyrrolidin-1-yl]-3-(trifluoromethyl)pyridin-2-yl}-1-methyl-3-oxo-2,3-dihydro-1H-pyrazol-4-yl]-4-(difluoromethoxy)benzamide], for which the EC50 in assay [1] was 2 nM; in assay [2] it was 2700 nM.
The matching figures for `COCC(CO)Oc1cc(OC)cc(-n2c(=O)c(NC(=O)c3ccc(OC(F)F)cc3)c(-c3c(F)cc(OC)cc3F)n2C)n1` (stereo not shown) [Example 382, N-(5-(2,6-Difluoro-4-methoxyphenyl)-2-(6-((1-hydroxy-3-methoxypropan-2-yl)oxy)-4-methoxypyridin-2-yl)-1-methyl-3-oxo-2,3-dihydro-1H-pyrazol-4-yl)-4-(difluoromethoxy)benzamide]: 8 nM and more than 10000 nM.
The matching figures for `COc1cc(F)c(-c2c(NC(=O)c3ccc(OC(F)F)cc3)c(=O)n(-c3cccc(Cl)c3F)n2C)c(F)c1` [Example 187, N-[2-(3-chloro-2-fluorophenyl)-5-(2,6-difluoro-4-methoxyphenyl)-1-methyl-3-oxo-2,3-dihydro-1H-pyrazol-4-yl]-4-(difluoromethoxy)benzamide]: 4 nM and 2200 nM.
For `COc1cc(F)c(-c2c(NC(=O)c3ccc(OC(F)F)cc3)c(=O)n(-c3cc(OC4CCOC4)cc(C)n3)n2C)c(F)c1` (stereo not shown) [Example 320, N-(5-(2,6-Difluoro-4-methoxyphenyl)-1-methyl-2-(6-methyl-4-((tetrahydrofuran-3-yl)oxy)pyridin-2-yl)-3-oxo-2,3-dihydro-1H-pyrazol-4-yl)-4-(difluoromethoxy)benzamide] the same measures were 2 nM and 990 nM.
Consider `COc1cc(F)c(-c2c(NC(=O)c3ccc(OC(F)F)cc3)c(=O)n(-c3cccc(Cl)c3Cl)n2C)c(F)c1` [Example 34, N-[2-(2,3-dichlorophenyl)-5-(2,6-difluoro-4-methoxyphenyl)-1-methyl-3-oxo-2,3-dihydro-1H-pyrazol-4-yl]-4-(difluoromethoxy)benzamide], for which the concentration for a half-maximal effect (EC50) in assay [1] was determined as 4 nM; in assay [2] it was 1900 nM.
With `COc1cc(F)c(-c2c(NC(=O)c3ccc(OC(F)F)cc3)c(=O)n(-c3c(F)cccc3F)n2C)c(F)c1` [Example 27, N-[5-(2,6-difluoro-4-methoxyphenyl)-2-(2,6-difluorophenyl)-1-methyl-3-oxo-2,3-dihydro-1H-pyrazol-4-yl]-4-(difluoromethoxy)benzamide], the EC50 is 10 nM in assay [1] and more than 10000 nM in assay [2].
The matching figures for `COc1cc(F)c(-c2c(NC(=O)c3ccc(OC(F)F)cc3)c(=O)n(-c3nc(Cl)ccc3N(C)C)n2C)c(F)c1` [Example 209, N-{2-[6-chloro-3-(dimethylamino)pyridin-2-yl]-5-(2,6-difluoro-4-methoxyphenyl)-1-methyl-3-oxo-2,3-dihydro-1H-pyrazol-4-yl}-4-(difluoromethoxy)benzamide]: 3 nM and more than 10000 nM.
For `COc1cc(F)c(-c2c(NC(=O)c3ccc(OC(F)F)cc3)c(=O)n(-c3ncccc3N(C)C)n2C)c(F)c1` [Example 142, N-[5-(2,6-difluoro-4-methoxyphenyl)-2-[3-(dimethylamino)pyridin-2-yl]-1-methyl-3-oxo-2,3-dihydro-1H-pyrazol-4-yl]-4-(difluoromethoxy)benzamide] the same measures were 17 nM and 3100 nM.
With `[2H]C([2H])([2H])Oc1cc(F)c(-c2c(NC(=O)c3ccc(OC(F)(F)F)cc3)c(=O)n(-c3cc(C(F)(F)F)ccn3)n2C)c(F)c1` [Example 402, N-(5-(2,6-difluoro-4-(methoxy-d3)phenyl)-1-methyl-3-oxo-2-(4-(trifluoromethyl)pyridin-2-yl)-2,3-dihydro-1H-pyrazol-4-yl)-4-(trifluoromethoxy)benzamide], the results for the EC50 in assay [1] and in assay [2] were 5 nM and more than 10000 nM, respectively.
For the compound `COc1cc(F)c(-c2c(NC(=O)c3ccc(OC(F)F)cc3)c(=O)n(CCO)n2C)c(F)c1` [Example 58, N-[5-(2,6-difluoro-4-methoxyphenyl)-2-(2-hydroxyethyl)-1-methyl-3-oxo-2,3-dihydro-1H-pyrazol-4-yl]-4-(difluoromethoxy)benzamide], the results for the EC50 in assay [1] and in assay [2] were 230 nM and more than 10000 nM, respectively.
For `COc1cccc(-n2c(=O)c(NC(=O)c3ccc(OC(F)F)cc3)c(-c3ccc(OC(F)F)cc3)n2C)n1` [Example 315, 4-(difluoromethoxy)-N-{5-[4-(difluoromethoxy)phenyl]-2-(6-methoxypyridin-2-yl)-1-methyl-3-oxo-2,3-dihydro-1H-pyrazol-4-yl}benzamide] the same measures were 30 nM and 290 nM.
The matching figures for `COc1cc(F)c(-c2c(NC(=O)c3ccc(OC(F)(F)F)cc3)c(=O)n(-c3cc(Cl)ccn3)n2C)c(F)c1` [Example 153, N-[2-(4-chloropyridin-2-yl)-5-(2,6-difluoro-4-methoxyphenyl)-1-methyl-3-oxo-2,3-dihydro-1H-pyrazol-4-yl]-4-(trifluoromethoxy)benzamide]: 5 nM and 4200 nM.
For `COc1cc(F)c(-c2c(NC(=O)c3ccc(OC(F)F)cc3)c(=O)n(-c3nc(N4CCN(C)CC4)ccc3C#N)n2C)c(F)c1` [Example 202, N-{2-[3-cyano-6-(4-methylpiperazin-1-yl)pyridin-2-yl]-5-(2,6-difluoro-4-methoxyphenyl)-1-methyl-3-oxo-2,3-dihydro-1H-pyrazol-4-yl}-4-(difluoromethoxy)benzamide] the same measures were 32 nM and 2500 nM.
Regarding `COc1cc(F)c(-c2c(NC(=O)c3ccc(OC(F)F)cc3)c(=O)n(-c3cccc(-n4ccc(C)n4)n3)n2C)c(F)c1` [Example 69, N-[5-(2,6-difluoro-4-methoxyphenyl)-1-methyl-2-[6-(3-methyl-1H-pyrazol-1-yl)pyridin-2-yl]-3-oxo-2,3-dihydro-1H-pyrazol-4-yl]-4-(difluoromethoxy)benzamide], the EC50 in assay [1] and in assay [2] was 5 nM throughout.
Regarding `COc1cc(OC2CCOC2)nc(-n2c(=O)c(NC(=O)c3ccc(OC(F)F)cc3)c(-c3c(F)cc(OC)cc3F)n2C)c1` (stereo not shown) [Example 355, N-(5-(2,6-Difluoro-4-methoxyphenyl)-2-(4-methoxy-6-((tetrahydrofuran-3-yl)oxy)pyridin-2-yl)-1-methyl-3-oxo-2,3-dihydro-1H-pyrazol-4-yl)-4-(difluoromethoxy)benzamide], the EC50 is 4 nM in assay [1] and more than 10000 nM in assay [2].
Take `Cn1c(-c2c(F)cc(Cl)cc2F)c(NC(=O)c2ccc(OC(F)F)cc2)c(=O)n1-c1cccc(C(C)(C)O)n1` [Example 407]: the EC50 was 23 nM in assay [1] and more than 10000 nM in assay [2].
For `CC(C)Oc1cc(OCC(C)(C)O)nc(-n2c(=O)c(NC(=O)c3ccc(OC(F)(F)F)cc3)c(-c3c(F)cc(Cl)cc3F)n2C)c1` [Example 408, N-(5-(4-chloro-2,6-difluorophenyl)-2-(6-(2-hydroxy-2-methylpropoxy)-4-isopropoxypyridin-2-yl)-1-methyl-3-oxo-2,3-dihydro-1H-pyrazol-4-yl)-4-(trifluoromethoxy)benzamide], the results for the EC50 in assay [1] and in assay [2] were 7 nM and 1100 nM, respectively.
`COc1cc(F)c(-c2c(NC(=O)c3ccc(OC(F)F)cc3)c(=O)n(-c3nc(NCC4CC4)ccc3C(F)(F)F)n2C)c(F)c1` [Example 264, N-(2-{6-[(cyclopropylmethyl)amino]-3-(trifluoromethyl)pyridin-2-yl}-5-(2,6-difluoro-4-methoxyphenyl)-1-methyl-3-oxo-2,3-dihydro-1H-pyrazol-4-yl)-4-(difluoromethoxy)benzamide]: the EC50 in assay [1] was 2 nM; in assay [2] it was more than 5000 nM.
